Read-outs that look alike come from different tables or passages of the source.
Legend:
[1] = system: MV4-11; assay: Cellular MV4-11 viability assay (CellTiter-Glo, 72 hours); format: cell-based; conditions: Homo sapiens
Procedure, shortened: (§1)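 Luminescent ATP read-out (CellTiter-Glo) after 72 h compound exposure at 37 °C/5% CO2; duplicate wells; vehicle control DMSO <0.1% final; seeding density set per cell line.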

[2] = system: H460; assay: Cellular H460 viability assay (CellTiter-Glo, 72 hours); format: cell-based; conditions: Homo sapiens, NCI-H460
Procedure, shortened: as §1

[3] = target: T1, CDK5/p25 (Homo sapiens, UniProt Q00535); assay: Enzymatic assay for CDK5 (FRET based LANCE Ultra kinase assay); format: biochemical
T1 construct: purchased Invitrogen PR8543B
Procedure, shortened: (§2)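 TR-FRET (LANCE Ultra) kinase assay at ATP Km, ULight-MBP peptide substrate (68 nM), 8-dose 4-fold compound series in DMSO. Enzymes: […]; 60 min at 23° C., stopped with EDTA plus Eu-anti-phospho-MBP antibody, read 665/615 nm after 60 min.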

[4] = target: T2, CDK2/Cyclin A (Homo sapiens, UniProt P24941); assay: Enzymatic assay for CDK2 (FRET based LANCE Ultra kinase assay); format: biochemical
T2 construct: purchased Invitrogen PV6290
Procedure, shortened: as §2

[5] = target: T3, CDK1/Cyclin B (Homo sapiens, UniProt P06493); assay: Enzymatic assay for CDK1 (FRET based LANCE Ultra kinase assay); format: biochemical
T3 construct: purchased Invitrogen PR4768C
Procedure, shortened: as §2

[6] = target: T4, CDK7/Cyclin H/MNAT1 (Homo sapiens, UniProt P50613); assay: Enzymatic assay for CDK7 (FRET based LANCE Ultra kinase assay); format: biochemical
T4 construct: purchased Invitrogen PR6749B
Procedure, shortened: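 Inhibition was measured at Km ATP by time-resolved FRET between a Eu anti-phospho antibody and a phosphorylated ULight peptide. The enzyme was the purified CDK7/cyclin complex, and data were curve-fitted.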

[7] = system: A2780; assay: Cellular A2780 viability assay (CellTiter-Glo, 72 hours); format: cell-based; conditions: Homo sapiens
Procedure, shortened: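 Compound exposure lasted 72 h at 37° C, 5% CO2, over 0.0015–10 uM, DMSO kept under 0.1%, with dosing 24 h after seeding. Seeding: A2780 1×10^3, OVCAR-3 5×10^3, MM.1S 1×10^4 cells/well in 10% FBS RPMI-1640. Duplicate CellTiter-Glo luminescence readout.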

[8] = system: HCT116; assay: Cellular HCT116 viability assay (CellTiter-Glo, 72 hours); format: cell-based; conditions: Homo sapiens, HCT-116
Procedure, shortened: as §1

[9] = system: RPMI-8226; assay: Cellular RPMI-8226 viability assay (CellTiter-Glo, 72 hours); format: cell-based; conditions: Homo sapiens
Procedure, shortened: as §1

[10] = system: MOLT-4; assay: Cellular MOLT-4 viability assay (CellTiter-Glo, 72 hours); format: cell-based; conditions: Homo sapiens, MOLT4 viability assay
Procedure, shortened: as §1

[11] = read-out: CDK5 enzymatic activity (IC50 range)
[12] = read-out: CDK2 enzymatic activity (IC50 range)
[13] = read-out: CDK1 enzymatic activity (IC50 range)
[14] = read-out: CDK7 enzymatic activity (IC50 range)

T3 sequence (P06493 whole entry): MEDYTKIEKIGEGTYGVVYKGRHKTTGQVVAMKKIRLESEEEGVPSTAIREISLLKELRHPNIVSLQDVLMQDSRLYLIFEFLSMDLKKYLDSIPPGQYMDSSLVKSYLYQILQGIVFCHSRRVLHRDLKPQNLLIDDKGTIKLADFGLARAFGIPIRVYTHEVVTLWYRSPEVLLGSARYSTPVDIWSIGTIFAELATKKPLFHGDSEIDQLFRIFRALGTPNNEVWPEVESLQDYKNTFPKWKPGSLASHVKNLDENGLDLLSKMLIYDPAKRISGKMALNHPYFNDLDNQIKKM
T3 sequence (P14635 whole entry partner): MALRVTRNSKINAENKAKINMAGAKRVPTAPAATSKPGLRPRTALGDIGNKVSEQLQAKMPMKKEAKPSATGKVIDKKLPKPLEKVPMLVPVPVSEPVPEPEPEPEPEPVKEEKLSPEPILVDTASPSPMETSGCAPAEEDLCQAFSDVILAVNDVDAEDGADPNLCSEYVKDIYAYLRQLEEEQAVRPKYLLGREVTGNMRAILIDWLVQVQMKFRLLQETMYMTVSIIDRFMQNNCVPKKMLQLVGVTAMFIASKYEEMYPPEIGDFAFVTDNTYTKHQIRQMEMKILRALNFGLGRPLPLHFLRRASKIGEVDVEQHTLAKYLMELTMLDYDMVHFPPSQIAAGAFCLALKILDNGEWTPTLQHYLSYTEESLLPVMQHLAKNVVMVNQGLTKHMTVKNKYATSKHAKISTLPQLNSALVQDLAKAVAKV
T4 sequence (P50613 whole entry): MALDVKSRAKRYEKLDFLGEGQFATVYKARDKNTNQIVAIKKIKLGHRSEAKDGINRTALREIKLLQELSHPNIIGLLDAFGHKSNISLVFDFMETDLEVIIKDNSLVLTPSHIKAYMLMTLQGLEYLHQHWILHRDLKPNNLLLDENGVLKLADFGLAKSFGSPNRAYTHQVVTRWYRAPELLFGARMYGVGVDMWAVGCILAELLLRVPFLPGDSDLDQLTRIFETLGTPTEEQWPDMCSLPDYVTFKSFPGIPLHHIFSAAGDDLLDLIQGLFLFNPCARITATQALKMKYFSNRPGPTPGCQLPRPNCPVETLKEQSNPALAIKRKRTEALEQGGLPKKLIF
T4 sequence (P51946 whole entry partner): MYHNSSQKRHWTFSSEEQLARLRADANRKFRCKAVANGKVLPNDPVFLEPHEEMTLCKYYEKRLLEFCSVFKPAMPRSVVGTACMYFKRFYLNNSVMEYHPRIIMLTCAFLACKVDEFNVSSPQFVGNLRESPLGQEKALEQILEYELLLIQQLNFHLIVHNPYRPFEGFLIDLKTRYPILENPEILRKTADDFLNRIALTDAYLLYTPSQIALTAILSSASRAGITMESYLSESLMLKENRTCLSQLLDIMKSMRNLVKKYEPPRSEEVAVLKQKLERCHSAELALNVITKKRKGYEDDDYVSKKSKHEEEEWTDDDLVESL
T4 sequence (P51948 whole entry partner): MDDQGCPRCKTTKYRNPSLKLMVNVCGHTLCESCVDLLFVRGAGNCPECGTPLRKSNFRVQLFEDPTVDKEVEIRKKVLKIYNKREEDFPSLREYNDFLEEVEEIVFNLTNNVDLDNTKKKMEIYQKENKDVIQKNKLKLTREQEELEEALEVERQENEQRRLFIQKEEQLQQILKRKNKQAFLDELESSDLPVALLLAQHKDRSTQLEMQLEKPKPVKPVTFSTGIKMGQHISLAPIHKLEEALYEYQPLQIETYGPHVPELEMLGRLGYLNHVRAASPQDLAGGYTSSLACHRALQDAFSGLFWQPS
T1 sequence (Q00535 whole entry): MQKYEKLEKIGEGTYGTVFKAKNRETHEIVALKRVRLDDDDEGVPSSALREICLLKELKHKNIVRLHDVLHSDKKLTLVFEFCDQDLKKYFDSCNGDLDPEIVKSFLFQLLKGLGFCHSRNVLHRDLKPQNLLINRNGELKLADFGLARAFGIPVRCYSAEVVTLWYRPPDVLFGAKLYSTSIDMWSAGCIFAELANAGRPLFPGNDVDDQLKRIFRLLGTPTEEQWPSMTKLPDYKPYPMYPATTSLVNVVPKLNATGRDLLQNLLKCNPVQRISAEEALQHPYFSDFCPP
T1 sequence (Q15078 99-307 partner limits assumed): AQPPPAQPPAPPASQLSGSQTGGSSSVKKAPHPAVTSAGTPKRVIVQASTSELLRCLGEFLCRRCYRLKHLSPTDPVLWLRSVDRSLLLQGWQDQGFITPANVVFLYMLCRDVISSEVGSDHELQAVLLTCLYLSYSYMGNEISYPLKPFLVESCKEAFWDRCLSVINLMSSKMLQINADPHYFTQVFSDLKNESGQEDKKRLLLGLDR

Row | SMILES | IC50 [1] [nM] | IC50 [2] [nM] | IC50 [3, 11] [nM] | IC50 [4, 12] [nM] | IC50 [5, 13] [nM] | CDK1/CDK7: Selectivity of CDK7 inhibition over CDK1 inhibition ([6]; CDK7 over CDK1) | CDK2/CDK7: Selectivity of CDK7 inhibition over CDK2 inhibition ([6]; CDK7 over CDK2) | CDK5/CDK7: Selectivity of CDK7 inhibition over CDK5 inhibition ([6]; CDK7 over CDK5) | IC50 [6, 14] [nM] | IC50 [7] [nM] | IC50 [8] [nM] | IC50 ([3]; read-out: CDK5 enzymatic activity (IC50 activity range)) [nM] | IC50 ([4]; read-out: CDK2 enzymatic activity (IC50 activity range)) [nM] | IC50 [9] [nM] | IC50 ([5]; read-out: CDK1 enzymatic activity (IC50 activity range)) [nM] | CDK1/CDK7: Selectivity of CDK7 inhibition over CDK1 inhibition ([6]; CDK1/CDK7) | CDK2/CDK7: Selectivity of CDK7 inhibition over CDK2 inhibition ([6]; CDK2/CDK7) | CDK5/CDK7: Selectivity of CDK7 inhibition over CDK5 inhibition ([6]; CDK5/CDK7) | IC50 ([6]; read-out: CDK7 enzymatic activity (IC50 activity range)) [nM] | IC50 [10] [nM]
1 | Cc1cccc(-c2cc(C(C)(C)O)nn2C)c1CNc1nc(N2CCC(N)CC2)nc2c(C(C)C)cnn12 [Compound 231] | < 1000 | < 1000 | > 1000 | > 1000 | > 1000 | A (A=greater than 200 fold) | A (A=greater than 200 fold) | A (A=greater than 200 fold) | < 100 | ≤ 1000 | < 1000 | – | – | – | – | – | – | – | – | –
2 | CC(C)c1cnn2c(NCc3ccccc3-n3ccc(C(C)(C)O)n3)nc(NC[C@H]3CCNC[C@@H]3O)nc12 [Compound 233] | < 1000 | < 1000 | > 1000 | 100 to 1000 | > 1000 | A (A=greater than 200 fold) | B (B=less than 200 fold, but greater than 20 fold) | A (A=greater than 200 fold) | < 100 | ≤ 1000 | < 1000 | – | – | – | – | – | – | – | – | –
3 | CC(C)c1cnn2c(NCc3ccccc3-c3cc4ccccc4[nH]3)nc(NCC3CNCCO3)nc12 (racemic) [Compound 274] | < 1000 | < 1000 | – | – | – | – | – | – | – | ≤ 1000 | – | 100 to 1000 | > 1000 | 1000 to 10000 | > 1000 | A (A=greater than 200 fold) | B (B=less than 200 fold, but greater than 20 fold) | B (B=less than 200 fold, but greater than 20 fold) | < 100 | –
4 | CC(C)c1cnn2c(NCc3ccccc3-c3cc4ccccc4[nH]3)nc(N3CCC(N)(CO)CC3)nc12 [Compound 129] | < 1000 | < 1000 | 100 to 1000 | 100 to 1000 | > 1000 | A (A=greater than 200 fold) | A (A=greater than 200 fold) | B (B=less than 200 fold, but greater than 20 fold) | < 100 | ≤ 1000 | – | – | – | < 1000 | – | – | – | – | – | –
5 | CC(C)c1cnn2c(NCc3ccccc3-c3cc4ccccc4[nH]3)nc(N3CCOC(CN)C3)nc12 (racemic) [Compound 130] | < 1000 | < 1000 | 100 to 1000 | 100 to 1000 | > 1000 | A (A=greater than 200 fold) | B (B=less than 200 fold, but greater than 20 fold) | B (B=less than 200 fold, but greater than 20 fold) | < 100 | ≤ 1000 | – | – | – | < 1000 | – | – | – | – | – | –
6 | CC(C)c1cnn2c(NCc3ccccc3-c3ccc4ccccc4n3)nc(NCCC(O)CN)nc12 (racemic) [Compound 234] | < 1000 | < 1000 | > 1000 | > 1000 | > 1000 | A (A=greater than 200 fold) | A (A=greater than 200 fold) | A (A=greater than 200 fold) | < 100 | ≤ 1000 | < 1000 | – | – | – | – | – | – | – | – | –
7 | CC(C)c1cnn2c(NCc3ccccc3-n3cccn3)nc(N3CCC(O)CC3)nc12 [Compound 4] | – | 1000 to 10000 | 100 to 1000 | 100 to 1000 | > 1000 | B (B=less than 200 fold, but greater than 20 fold) | B (B=less than 200 fold, but greater than 20 fold) | B (B=less than 200 fold, but greater than 20 fold) | < 100 | 1000 to 10000 | – | – | – | – | – | – | – | – | – | > 10000
8 | CC(C)c1cnn2c(NCc3c(Cl)cccc3-c3cccc(C(C)(C)O)n3)nc(N3CCC(N)CC3)nc12 [Compound 241] | < 1000 | < 1000 | > 1000 | > 1000 | > 1000 | A (A=greater than 200 fold) | A (A=greater than 200 fold) | B (B=less than 200 fold, but greater than 20 fold) | < 100 | ≤ 1000 | < 1000 | – | – | – | – | – | – | – | – | –
9 | Cc1cccc(-n2ccc(C(C)(C)O)n2)c1CNc1nc(N2CCC(N)CC2)nc2c(C(C)C)cnn12 [Compound 230] | < 1000 | < 1000 | > 1000 | > 1000 | > 1000 | A (A=greater than 200 fold) | A (A=greater than 200 fold) | A (A=greater than 200 fold) | < 100 | ≤ 1000 | < 1000 | – | – | – | – | – | – | – | – | –
10 | CC(C)c1cnn2c(NCc3c(Cl)cccc3-n3ccc(C(C)(C)O)n3)nc(N3CCC(O)(CN)CC3)nc12 [Compound 238] | < 1000 | < 1000 | > 1000 | > 1000 | > 1000 | A (A=greater than 200 fold) | A (A=greater than 200 fold) | A (A=greater than 200 fold) | < 100 | ≤ 1000 | < 1000 | – | – | – | – | – | – | – | – | –
11 | CC(C)c1cnn2c(NCc3ccccc3-n3cccn3)nc(N3CCNCC3)nc12 [Compound 2] | < 1000 | < 1000 | 100 to 1000 | 100 to 1000 | > 1000 | A (A=greater than 200 fold) | B (B=less than 200 fold, but greater than 20 fold) | B (B=less than 200 fold, but greater than 20 fold) | 100 to 1000 | ≤ 1000 | – | – | – | – | – | – | – | – | – | 1000 to 10000
